Reference: ChEMBL document CHEMBL3804811 (J Med Chem, 2016)
≈ marks a conversion by molar mass, not a printed value.

Assays:
[1] = target: ALK tyrosine kinase receptor (Homo sapiens, UniProt Q9UM73)
Description: Inhibition of recombinant ALK (unknown origin) in presence of gamma33-ATP

Insulin receptor = Insulin receptor (Homo sapiens, UniProt P06213); assay: Inhibition of IR (unknown origin) in presence of gamma33-ATP
[2] = Antiproliferative activity against human KARPAS299 cells incubated for 72 hrs by cell titer-glo assay; settings: KARPAS-299, 72 h
[3] = AUC (infinity) in Harlan nu/nu mouse at 10 mg/kg, po administered as single dose by LC-MS/MS analysis; format: ADME, organism-based; design: dose 10 mg/kg, route oral, time infinity; settings: in vivo
[4] = Apparent permeability from apical to basolateral side in human Caco2 cells at 2.5 mg/ml after 2 hrs by reversed-phase HPLC method; format: ADME, cell-based; settings: Caco-2
[5] = Half life in Harlan nu/nu mouse at 10 mg/kg, iv administered as single dose by LC-MS/MS analysis; format: ADME, organism-based; settings: in vivo
[6] = Cmax in Harlan nu/nu mouse at 10 mg/kg, po administered as single dose by LC-MS/MS analysis; format: ADME, organism-based; design: dose 10 mg/kg, route oral; settings: in vivo
[7] = Apparent permeability from basolateral to apical side in human Caco2 cells at 2.5 mg/ml after 2 hrs by reversed-phase HPLC method; format: ADME, cell-based; settings: Caco-2
[8] = Oral bioavailability in Harlan nu/nu mouse at 10 mg/kg administered as single dose by LC-MS/MS analysis; format: ADME, organism-based; settings: in vivo
[9] = Intrinsic clearance in rat hepatocytes at […] after 10 to 90 mins by LC-MS/MS analysis; format: ADME, cell-based, Hepatocyte; settings: read-out: CLH
[10] = AUC (infinity) in Harlan nu/nu mouse at 10 mg/kg, iv administered as single dose by LC-MS/MS analysis; format: ADME, organism-based; design: dose 10 mg/kg, time infinity, route intravenous; settings: in vivo
[11] = Volume of distribution at steady state in Harlan nu/nu mouse at 10 mg/kg, iv administered as single dose by LC-MS/MS analysis; settings: in vivo
[12] = Tmax in Harlan nu/nu mouse at 10 mg/kg, po administered as single dose by LC-MS/MS analysis; format: ADME, organism-based; settings: in vivo
[13] = Intrinsic clearance in human liver microsomes at […] preincubated for 5 mins followed by NADPH addition measured after 5 to 30 mins by LC-MS/MS analysis; format: ADME; settings: read-out: CLH
[14] = Cmax in Harlan nu/nu mouse at 10 mg/kg, iv administered as single dose by LC-MS/MS analysis; format: ADME, organism-based; design: dose 10 mg/kg, route intravenous; settings: in vivo
[15] = Half life in Harlan nu/nu mouse at 10 mg/kg, po administered as single dose by LC-MS/MS analysis; format: ADME, organism-based; settings: in vivo
[16] = Clearance in Harlan nu/nu mouse at 10 mg/kg, iv administered as single dose by LC-MS/MS analysis; format: ADME, organism-based; settings: in vivo
[17] = Solubility of compound at pH 7 buffer; format: physicochemical

Sequence of Insulin receptor (P06213 28-758 limits assumed): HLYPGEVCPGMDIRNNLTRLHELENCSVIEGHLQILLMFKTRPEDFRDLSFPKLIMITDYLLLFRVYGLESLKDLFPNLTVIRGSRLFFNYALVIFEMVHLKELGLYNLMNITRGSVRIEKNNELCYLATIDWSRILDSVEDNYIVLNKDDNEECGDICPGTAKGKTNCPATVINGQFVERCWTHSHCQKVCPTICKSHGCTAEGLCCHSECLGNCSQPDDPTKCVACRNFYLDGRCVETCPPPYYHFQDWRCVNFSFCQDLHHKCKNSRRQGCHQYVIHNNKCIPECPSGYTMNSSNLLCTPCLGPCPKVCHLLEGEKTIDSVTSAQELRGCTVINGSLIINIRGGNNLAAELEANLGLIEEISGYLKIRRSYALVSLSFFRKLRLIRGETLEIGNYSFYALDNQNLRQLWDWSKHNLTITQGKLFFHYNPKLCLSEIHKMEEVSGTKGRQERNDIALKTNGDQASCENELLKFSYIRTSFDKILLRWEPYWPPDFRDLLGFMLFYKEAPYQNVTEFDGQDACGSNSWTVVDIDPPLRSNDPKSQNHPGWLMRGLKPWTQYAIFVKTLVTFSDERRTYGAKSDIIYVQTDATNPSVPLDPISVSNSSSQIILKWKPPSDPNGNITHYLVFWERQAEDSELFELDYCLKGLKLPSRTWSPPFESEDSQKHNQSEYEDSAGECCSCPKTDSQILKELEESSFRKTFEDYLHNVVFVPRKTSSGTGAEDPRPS
Sequence of Insulin receptor (P06213 763-1382 limits assumed): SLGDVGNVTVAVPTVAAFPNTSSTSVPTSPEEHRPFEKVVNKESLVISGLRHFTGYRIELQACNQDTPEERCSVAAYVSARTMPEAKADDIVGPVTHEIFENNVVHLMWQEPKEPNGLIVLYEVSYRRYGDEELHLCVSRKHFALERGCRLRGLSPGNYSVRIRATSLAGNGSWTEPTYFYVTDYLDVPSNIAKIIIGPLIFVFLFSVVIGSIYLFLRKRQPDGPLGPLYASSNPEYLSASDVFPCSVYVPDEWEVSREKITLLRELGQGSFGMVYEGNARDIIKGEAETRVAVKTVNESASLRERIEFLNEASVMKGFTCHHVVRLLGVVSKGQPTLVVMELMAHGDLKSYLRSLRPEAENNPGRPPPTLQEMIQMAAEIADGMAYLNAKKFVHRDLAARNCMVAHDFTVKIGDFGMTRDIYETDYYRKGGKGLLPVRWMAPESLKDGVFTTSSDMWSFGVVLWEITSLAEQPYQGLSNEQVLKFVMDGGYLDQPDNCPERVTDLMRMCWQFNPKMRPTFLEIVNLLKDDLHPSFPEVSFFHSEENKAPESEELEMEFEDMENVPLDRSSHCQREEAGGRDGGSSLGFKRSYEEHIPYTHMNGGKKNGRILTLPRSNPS
Sequence of ALK tyrosine kinase receptor (Q9UM73 whole entry): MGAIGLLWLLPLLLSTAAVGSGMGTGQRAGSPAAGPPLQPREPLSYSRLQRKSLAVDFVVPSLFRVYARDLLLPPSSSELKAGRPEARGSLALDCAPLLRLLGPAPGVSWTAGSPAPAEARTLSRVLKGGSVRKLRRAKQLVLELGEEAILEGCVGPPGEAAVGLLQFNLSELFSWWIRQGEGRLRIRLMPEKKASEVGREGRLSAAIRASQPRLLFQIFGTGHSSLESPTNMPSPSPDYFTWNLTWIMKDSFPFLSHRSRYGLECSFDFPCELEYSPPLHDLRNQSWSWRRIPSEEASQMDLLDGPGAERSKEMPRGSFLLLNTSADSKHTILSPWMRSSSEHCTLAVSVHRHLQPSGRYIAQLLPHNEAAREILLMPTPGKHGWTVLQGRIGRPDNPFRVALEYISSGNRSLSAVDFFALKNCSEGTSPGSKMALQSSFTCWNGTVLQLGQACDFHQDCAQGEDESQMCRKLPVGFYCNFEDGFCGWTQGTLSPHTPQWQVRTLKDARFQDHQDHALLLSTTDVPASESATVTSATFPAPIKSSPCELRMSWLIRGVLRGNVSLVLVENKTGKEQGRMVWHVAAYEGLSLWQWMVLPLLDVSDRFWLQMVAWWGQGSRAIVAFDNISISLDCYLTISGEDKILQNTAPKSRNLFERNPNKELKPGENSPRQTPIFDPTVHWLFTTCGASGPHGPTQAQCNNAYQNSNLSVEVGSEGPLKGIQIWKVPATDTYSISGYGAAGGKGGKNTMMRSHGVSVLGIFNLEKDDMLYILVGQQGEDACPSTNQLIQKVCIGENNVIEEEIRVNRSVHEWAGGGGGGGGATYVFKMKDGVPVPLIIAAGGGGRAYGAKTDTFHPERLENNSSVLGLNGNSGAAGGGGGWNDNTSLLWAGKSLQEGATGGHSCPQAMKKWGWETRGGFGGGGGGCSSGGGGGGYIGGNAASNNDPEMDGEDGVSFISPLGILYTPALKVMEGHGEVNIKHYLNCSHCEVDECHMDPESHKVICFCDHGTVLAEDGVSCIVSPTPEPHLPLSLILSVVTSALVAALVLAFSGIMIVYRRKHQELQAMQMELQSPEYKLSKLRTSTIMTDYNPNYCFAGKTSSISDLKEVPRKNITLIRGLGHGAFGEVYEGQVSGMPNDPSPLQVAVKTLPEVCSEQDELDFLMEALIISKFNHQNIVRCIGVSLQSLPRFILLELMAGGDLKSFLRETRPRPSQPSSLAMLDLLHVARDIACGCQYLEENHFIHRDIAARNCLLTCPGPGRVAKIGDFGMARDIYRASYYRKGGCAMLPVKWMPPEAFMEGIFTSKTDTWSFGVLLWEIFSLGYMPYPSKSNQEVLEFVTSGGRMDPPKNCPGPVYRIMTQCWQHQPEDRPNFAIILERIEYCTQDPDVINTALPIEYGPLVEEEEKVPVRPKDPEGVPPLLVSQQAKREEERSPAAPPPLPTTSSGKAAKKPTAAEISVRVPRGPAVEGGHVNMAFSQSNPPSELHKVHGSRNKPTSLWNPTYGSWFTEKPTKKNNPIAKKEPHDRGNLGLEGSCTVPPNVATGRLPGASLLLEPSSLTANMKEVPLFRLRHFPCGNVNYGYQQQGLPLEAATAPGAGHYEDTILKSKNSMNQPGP

Row | IC50 [1] | IC50 (Insulin receptor) | AUC(0-inf) [3] | Papp A→B at 2 h, 2.5 mg/ml [4] | half-life [5] | Cmax [6] | Papp B→A at 2 h, 2.5 mg/ml [7] | bioavailability [8] | CLint scaled [9] | AUC(0-inf) [10] | Vd [11] | Tmax [12] | CLint scaled [13] | Cmax [14] | half-life [15] | clearance [16] | solubility [17] | Compound | IC50 [2]
1 | 30 nM | 427 nM |  |  |  |  |  |  |  |  |  |  |  |  |  |  |  | CN1CCN(c2ccc(C(=O)Nc3n[nH]c4ccc(Cc5cccc(F)c5)cc34)c(NC3CCOCC3)c2)CC1 | 18 nM
2 | 38 nM | 170 nM |  |  |  |  |  |  |  |  |  |  |  |  |  |  |  | CN1CCN(c2ccc(C(=O)Nc3n[nH]c4ccc(Cc5cc(F)ccc5F)cc34)c(NC3CCOCC3)c2)CC1 | 49 nM
3 | 67 nM | 353 nM |  |  |  |  |  |  |  |  |  |  |  |  |  |  |  | CN1CCN(c2ccc(C(=O)Nc3n[nH]c4ccc(Cc5cc(F)cc(F)c5)cc34)c(NCC3CN(C)C3)c2)CC1 | 386 nM
4 | 99 nM | 1640 nM |  |  |  |  |  |  |  |  |  |  |  |  |  |  |  | COCC(COC)Nc1cc(N2CCN(C)CC2)ccc1C(=O)Nc1n[nH]c2ccc(Cc3cc(F)cc(F)c3)cc12 | 340 nM
5 | 59 nM | 1160 nM |  |  |  |  |  |  |  |  |  |  |  |  |  |  |  | C[C@H](c1cc(F)cc(F)c1)c1ccc2[nH]nc(NC(=O)c3ccc(N4CCN(C)CC4)cc3NC3CCOCC3)c2c1 | 41 nM
6 | 684 nM | 9870 nM |  |  |  |  |  |  |  |  |  |  |  |  |  |  |  | CN1CCN(c2ccc(C(=O)Nc3n[nH]c4ccc(Cc5cc(F)cc(F)c5)cc34)c(Nc3ccccc3)c2)CC1 | 991 nM
7 | 14 nM | 462 nM | 31.5 µM·h | 2.4 ×10⁻⁶ cm/s | 5.92 h | 1.88 µM | 1.5 ×10⁻⁶ cm/s | 99% | 18 mL/min/kg | 24.7 µM·h | 4.76 L/kg | 4.33 h | 24 mL/min/kg | 7.58 µM | 9.86 h | 11.7 mL/min/kg | 16 µM (≈ 8.36 µg/mL) | CN1CCN(c2ccc(C(=O)Nc3n[nH]c4ccc(Cc5cc(F)cc(F)c5)cc34)c(NCCF)c2)CC1 | 49 nM
8 | 15 nM | 330 nM |  | 1.5 ×10⁻⁶ cm/s |  |  |  |  |  |  |  |  |  |  |  |  |  | CN1CCC(Nc2cc(N3CCN(C)CC3)ccc2C(=O)Nc2n[nH]c3ccc(Cc4cc(F)cc(F)c4)cc23)CC1 | 438 nM
9 | 378 nM | 3690 nM |  |  |  |  |  |  |  |  |  |  |  |  |  |  |  | CN1CCN(c2ccc(C(=O)Nc3n[nH]c4ccc(Cc5cc(F)cc(F)c5)cc34)c(NCc3ccccc3)c2)CC1 | 1260 nM
10 | 181 nM | 823 nM |  |  |  |  |  |  |  |  |  |  |  |  |  |  |  | Cc1ccc(F)cc1Cc1ccc2[nH]nc(NC(=O)c3ccc(N4CCN(C)CC4)cc3NC3CCOCC3)c2c1 | 851 nM
11 | 3 nM | 41 nM | 1.33 µM·h | 0.6 ×10⁻⁶ cm/s | 4.76 h | 0.081 µM | 4.5 ×10⁻⁶ cm/s | 2.9% | 52 mL/min/kg | 42.2 µM·h | 1.4 L/kg | 6 h | 7.5 mL/min/kg | 40.5 µM | 9.63 h | 7.01 mL/min/kg | 103 µM (≈ 56.3 µg/mL) | O=C(Nc1n[nH]c2ccc(Cc3cc(F)cc(F)c3)cc12)c1ccc(N2CCNCC2)cc1NC1CCOCC1 | 13 nM
12 | 18 nM | 653 nM | 1.51 µM·h | 1.1 ×10⁻⁶ cm/s | 1.52 h | 0.36 µM | 1.9 ×10⁻⁶ cm/s | 18% | 229 mL/min/kg | 7.97 µM·h | 2.63 L/kg | 0.83 h | 40 mL/min/kg | 5.69 µM | 2.25 h | 32.1 mL/min/kg | 84 µM (≈ 47 µg/mL) | O=C(Nc1n[nH]c2ccc(Cc3cc(F)cc(F)c3)cc12)c1ccc(CN2CCCCC2)cc1NC1CCOCC1 | 38 nM
13 | 19 nM | 189 nM |  |  |  |  |  |  |  |  |  |  |  |  |  |  |  | C[C@@H](c1cc(F)cc(F)c1)c1ccc2[nH]nc(NC(=O)c3ccc(N4CCN(C)CC4)cc3NC3CCOCC3)c2c1 | 16 nM
14 | 106 nM | 1490 nM |  |  |  |  |  |  |  |  |  |  |  |  |  |  |  | CN1CCN(c2ccc(C(=O)Nc3n[nH]c4ccc(Cc5ccccc5)cc34)c(NC3CCOCC3)c2)CC1 | 182 nM
15 | 9 nM | 196 nM | 11 µM·h | 0.3 ×10⁻⁶ cm/s | 4.94 h | 0.8 µM | 2 ×10⁻⁶ cm/s | 29.3% | 49 mL/min/kg | 33.1 µM·h | 2.62 L/kg | 6 h | 12 mL/min/kg | 6.93 µM | 4.08 h | 8.16 mL/min/kg | 59 µM (≈ 34 µg/mL) | CN1CCC(Oc2ccc(C(=O)Nc3n[nH]c4ccc(Cc5cc(F)cc(F)c5)cc34)c(NC3CCOCC3)c2)CC1 | 43 nM
16 | 73 nM | 1810 nM |  |  |  |  |  |  |  |  |  |  |  |  |  |  |  | CN1CCN(c2ccc(C(=O)Nc3n[nH]c4ccc(Cc5cc(F)cc(F)c5)cc34)cc2)CC1 | 253 nM
17 | 15 nM | 457 nM |  | 2.7 ×10⁻⁶ cm/s | 2.83 h |  | 19.8 ×10⁻⁶ cm/s |  | 42 mL/min/kg | 7.86 µM·h | 4.41 L/kg |  | 57 mL/min/kg | 10.3 µM |  | 38.8 mL/min/kg | 51 µM (≈ 30.1 µg/mL) | CN(C)CCN(C)C(=O)c1ccc(C(=O)Nc2n[nH]c3ccc(Cc4cc(F)cc(F)c4)cc23)c(NC2CCOCC2)c1 | 50 nM
18 | 98 nM | 707 nM |  |  |  |  |  |  |  |  |  |  |  |  |  |  |  | CN1CCN(c2ccc(C(=O)Nc3n[nH]c4ccc(Cc5cc(F)cc(F)c5)cc34)c(N[C@H]3CC[C@@H](O)CC3)c2)CC1 | 162 nM
19 | 67 nM | 1300 nM |  |  |  |  |  |  |  |  |  |  |  |  |  |  |  | CN1CCN(c2ccc(C(=O)Nc3n[nH]c4ccc(Cc5cc(F)cc(F)c5)cc34)c(N)c2)CC1 | 214 nM
20 | 135 nM | 1190 nM |  |  |  |  |  |  |  |  |  |  |  |  |  |  |  | COCCCNc1cc(N2CCN(C)CC2)ccc1C(=O)Nc1n[nH]c2ccc(Cc3cc(F)cc(F)c3)cc12 | 194 nM
21 | 210 nM | 1760 nM |  |  |  |  |  |  |  |  |  |  |  |  |  |  |  | COCCNc1cc(N2CCN(C)CC2)ccc1C(=O)Nc1n[nH]c2ccc(Cc3cc(F)cc(F)c3)cc12 | 243 nM
22 | 26 nM | 906 nM |  |  |  |  |  |  |  |  |  |  |  |  |  |  |  | CN1CCN(c2ccc(C(=O)Nc3n[nH]c4ccc(Cc5cc(F)cc(F)c5)cc34)c(NCCO)c2)CC1 | 118 nM
23 | 72 nM | 1070 nM |  |  |  |  |  |  |  |  |  |  |  |  |  |  |  | COC[C@@H](C)Nc1cc(N2CCN(C)CC2)ccc1C(=O)Nc1n[nH]c2ccc(Cc3cc(F)cc(F)c3)cc12 | 74 nM
24 | 10 nM | 189 nM | 1.25 µM·h | 1.8 ×10⁻⁶ cm/s | 3.01 h | 0.36 µM | 5.1 ×10⁻⁶ cm/s | 7.3% | 45 mL/min/kg | 13.1 µM·h | 3.02 L/kg | 1 h | 25 mL/min/kg | 7.06 µM |  | 21.3 mL/min/kg | 7 µM (≈ 4.02 µg/mL) | CN1CCN(c2ccc(C(=O)Nc3n[nH]c4ccc(Cc5cc(F)cc(F)c5)cc34)c(N[C@H]3CC[C@H](O)CC3)c2)CC1 | 68 nM
25 | 560 nM | 3820 nM |  |  |  |  |  |  |  |  |  |  |  |  |  |  |  | CN1CCN(c2ccc(C(=O)Nc3n[nH]c4ccc(Cc5cc(F)cc(F)c5)cc34)c(NC3CCCCC3)c2)CC1 | 609 nM
